Entries after “also recorded” stand apart in the source; their conditions may differ. Read-outs that look alike come from different tables or passages of the source. Ends that are not written are not given here.
How the values were obtained:
[1] = system: lymphatic endothelial cells (LEC); experiment: LEC adhesion assay; format: cell-based
Procedure: (§1) Similar to the migration assays, the inhibition activity of the peptide in cellular adhesion was assessed using the RT-CIM technology. In this case, 25,000 cells/well were plated in 16 wells E-plates (Roche, Basel Switzerland) in the presence or absence of the peptide. The adhesion was monitored over time (3 hours) by measuring changes in the electrical impedance, which is a direct measure of the cells adhering on the electrodes. […] Assays were performed in at least two independent replicates and each replicate was performed using two experimental duplicates.

[2] = system: MDA-MB-231 breast cancer cells; experiment: MDA-MB-231 adhesion assay; format: cell-based
Procedure: as §1

[3] = system: microvascular endothelial cells (MEC); experiment: MEC adhesion assay; format: cell-based
Procedure: as §1

[4] = system: MDA-MB-231-luc-D3H2LN cells; experiment: Tail vein assay of cancer metastasis (lung metastasis); format: in vivo; conditions: luciferase-transfected MDA-MB-231 cells in nude mice, IVIS
Procedure: The tail vein assay of cancer metastasis protocol from Current Protocols of Cell Biology was used to measure the effect of SP2024 on lung metastasis (Elkin and Vlodaysky, 2001). […] of 5×10^5 cells/mL luciferase-transfected MDA-MB-231-luc-D3H2LN (Caliper Biosciences) cell suspension was slowly injected into nude mice (nude mice are easier to image because of their lack of fur). Two hours before cell inoculation vehicle or 10 mg/kg SP2024 were administered subcutaneously on a daily basis. Bioluminescence to detect metastasis was measured by IVIS imaging (Caliper Biosciences) via IP injection of 150 mg/kg D-luciferin.

[5] = system: HUVEC; experiment: HUVEC migration assay (RT-CIM); format: cell-based, human
In short: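 Real-time impedance (RT-CIM) transwell migration through fibronectin-coated (20 μg/mL) 8 μm membranes; 45,000 cells/well in serum-free medium ± peptides, fully supplemented EBM-2 as chemoattractant below. Cell index recorded over 20 h at 37 °C; ≥2 independent replicates, each in duplicate.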

[6] = system: HUVEC; format: cell-based, human
In short: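 Adhesion of 25,000 cells per well, with or without peptide, followed by real-time electrical impedance on electrode plates over 3 hours. At least two independent replicates, each run in duplicate.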

[7] = system: microvascular endothelial cells (MEC); experiment: MEC migration assay; format: cell-based
Procedure: (§2) The inhibitory potential of the peptides was measured using a real time migration assay system based on electrical impedance (RT-CIM, ACEA Biosciences, CA). CIM 16 well plates (Roche, 05665817001) are composed of a top and bottom chamber separated by a microporous (8 μm) polycarbonate membrane. The membrane was coated with fibronectin (20 μg/mL), and 45,000 cells/well in serum free media with or without peptides were added to the top compartment. Media with chemoattractant (i.e., fully supplemented EBM-2) was added to the bottom compartment of the chamber and the plate was incubated at 37° C. for 20 hours. The sensors integrated on the bottom side of the membrane monitor and continuously record changes in impedance as the cells move through the membrane. The RT-CIM technology allows for easy quantification of cell migration by monitoring the cell index derived from the measured impedances. Assays were performed in at least two independent replicates and each replicate was performed using two experimental duplicates.

[8] = system: lymphatic endothelial cells (LEC); experiment: LEC migration assay; format: cell-based
Procedure: as §2

[9] = system: HUVEC; experiment: HUVEC tube formation assay on Matrigel; format: cell-based, human
In short: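 HUVEC (15,000/well) plated on polymerized Matrigel in complete media with or without peptide for 19 h at 37 °C. Tube networks imaged by microscopy, one random field per well, in triplicate wells across at least two independent experiments.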

[10] = system: HUVEC; format: cell-based, human; remark: listed apart in the source
In short: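 HUVEC plated at 2000 cells/well overnight, then exposed to peptides in fully supplemented medium for three days. WST-1 added in serum-free EBM-2 for four hours and absorbance read at 450 nm. Percent live cells taken relative to untreated cells in complete medium with 0.2% DMSO.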

[11] = system: MDA-MB-231 breast cancer cells; experiment: MDA-MB-231 wound healing type migration assay (Oris Pro); format: cell-based
Procedure: Breast cancer cells MDA-MB-231 are not suitable for the RT-CIM type experiments due to their thin elongated phenotype, thus the inhibition of migration was investigated using a wound healing type assay. This assay was performed using the Oris Pro Migration assay (Platypus Technologies, CMA 1.101). Briefly, 20,000-25,000 cells/well in full media were added to the 96 well plate containing stoppers to block migration of cells to the center region of the wells. Cells were allowed to adhere for 4 hours, after which the stoppers were removed. Cells were washed one time with PBS and fully supplemented media, with or without compound, was added to the wells. […], cells were stained with calcein AM (0.5 μg/mL) (Invitrogen, CA) and the cells that migrated to the center of the well were quantified by fluorescence intensity measured using a Victor V plate reader (Perkin Elmer) and also imaged using a Leica or Nikon microscope.

Substance: LRRFSTMPFMFININNVINF-NH2 [SP2024]
- inhibition of adhesion of LEC [1]: strong
- inhibition of adhesion of MDA-MB-231 cells [2]: strong; also recorded: inhibition of cell adhesion
- inhibition of adhesion of MEC [3]: quite active
- lung metastasis [4]: inhibits lung metastasis
- Migration Inhibition (5 uM) ([5]; 5 uM peptide): 37.73%
- Activity in Migration ([5]; Yes/No summary, active = inhibitory potential greater than 30%): Yes
- IC50 ([6]; 3 h): 2350 ± 1300 nM
- Adhesion Inhibition (100 uM) ([6]; HUVEC, 100 uM peptide): 94.45%
- Activity in Adhesion ([6]; HUVEC, Yes/No summary, active = inhibitory potential greater than 30%): Yes
- inhibition of migration of MEC [7]: quite active
- inhibition of migration of LEC [8]: strong
- Tube formation Inhibition (100 uM) ([9]; 100 uM peptide): Complete
- Activity in Tube formation ([9]; Yes/No summary): Yes
- IC50 [10]: 1.29 µM
- Activity in Proliferation ([10]; HUVEC, Yes/No summary): Yes
- IC50 ([10]; HUVEC, tables 5, 8-10 and text, read-out: IC50 ± 95% CI (μM), proliferation): 7.45 ± 5.7 µM
- inhibition of migration of MDA-MB-231 cells [11]: strong; also recorded: inhibition of cell migration
